From US20250099545A1, “COMPOSITIONS, SYSTEMS, AND METHODS FOR TREATING CANCER USING TUMOR TREATING FIELDS WITH IMMUNE CHECKPOINT INHIBITORS AND MHC CLASS I ACTIVATORS” (Novocure GmbH, priority 2023, published 2025) come the findings set out here.

For test [1], the system named is MHC Class I expression in A2780 human ovarian cancer cells. The test can be described thus: MHC Class I expression in A2780 cells after alpelisib, TTFields or both. Format: cell-based. Particulars: TTFields (1.75V/cm and 200 kHz) plus 250 nM alpelisib for 72 h, then 72 h without drug under TTFields, vs untreated control and single treatments. Here is the method:
A2780 human ovarian cancer cells (20,000 cells/well) were incubated for 144 h with the following conditions: Control untreated; 250 nM alpelisib (PI3K inhibitor) for 72 h—media containing the drug was removed, and fresh media without alpelisib was added for an additional 72 h incubation; TTFields (1.75V/cm and 200 kHz); TTFields plus 250 nM alpelisib for 72 h—media containing the drug was removed, and fresh media without alpelisib was added for an additional 72 h incubation under TTFields condition.

Test [2] has as its system MHC Class I expression in Panc02-luc mouse pancreatic cells. Particulars: TTFields (1.75V/cm and 150 kHz) plus 10 μM chloroquine, 72 h, vs untreated control. On the procedure:
Panc02-luc mouse pancreatic cells (10,000 cells/well) were incubated for 72 h with the following conditions: Control untreated, 10 μM chloroquine (autophagy inhibitor), TTFields (1.75V/cm and 150 kHz), and TTFields plus 10 μM chloroquine.
In FIG. 3, MHC Class I expression was evaluated in Panc02-luc mouse pancreatic cells (an orthotopic model of pancreatic cancer) following chloroquine (an autophagy inhibitor) treatment alone, TTFields application alone, and the combination of TTFields application with concomitant chloroquine treatment.

Each structure is given as a SMILES string. Read-outs that look alike come from different tables or passages of the source.

Consider `Cc1nc(NC(=O)N2CCC[C@H]2C(N)=O)sc1-c1ccnc(C(C)(C)C(F)(F)F)c1` [alpelisib], for which the “MHC Class I expression” value in test [1] is recorded as “greater than in the untreated control group as well as in the single treatment groups”; in test [1] (listed as Alpelisib) it was “increased with concomitant Alpelisib treatment”.
In the case of `CCN(CC)CCCC(C)Nc1ccnc2cc(Cl)ccc12` (stereo not shown) [chloroquine], the “MHC Class I expression” value in test [2] is recorded as “increased significantly above the untreated cells”; in test [2] (listed as Chloroquine) it was “increased with concomitant Chloroquine treatment”.
